Source: US8778897B2, “Method of treatment using α-1-adrenergic agonist compounds” (The Regents of the University of California, priority 2008, dated 2014)

Experiments:
α1A receptor = molecular target: T1, α1A receptor (Mus musculus, UniProt P97718); conditions: wild-type mice, infusion; cited from earlier work
T1 construct: host or cells: wild-type mice (whole animal, endogenous receptor)
T1 sequence (P97718 1-466): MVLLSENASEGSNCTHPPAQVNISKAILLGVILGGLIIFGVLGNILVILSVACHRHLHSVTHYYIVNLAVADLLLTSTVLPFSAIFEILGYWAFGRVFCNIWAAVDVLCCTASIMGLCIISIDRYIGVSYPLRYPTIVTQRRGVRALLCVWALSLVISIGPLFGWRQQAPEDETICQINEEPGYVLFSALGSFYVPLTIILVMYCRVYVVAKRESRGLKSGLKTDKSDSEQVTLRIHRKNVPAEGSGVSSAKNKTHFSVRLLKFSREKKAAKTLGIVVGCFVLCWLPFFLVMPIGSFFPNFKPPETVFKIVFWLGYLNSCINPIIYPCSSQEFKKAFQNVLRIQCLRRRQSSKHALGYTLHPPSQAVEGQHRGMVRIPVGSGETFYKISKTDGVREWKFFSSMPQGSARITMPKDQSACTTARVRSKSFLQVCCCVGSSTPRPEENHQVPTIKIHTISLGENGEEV

[1] = test system: wild type male C57BI6J mice; assay: Doxorubicin-induced cardiomyopathy in wild type mice; type: in vivo; conditions: single doxorubicin 25 mg/kg i.p., A61603 10 ng/kg/day or vehicle infused over 7 days; for Fibrosis area (%): Sirius red; for Fibrosis area (%) / TUNEL-positive / ECHO FS (%) / Serum CK (U/L): mean ± SE; for TUNEL-positive: apoptosis; for Survival 7 days (%): untreated 100
Method: (§1) The alpha-1-adrenergic receptor agonist, A61603, was administered to 11 week-old wild type male C57BI6J mice using an osmotic minipump. Cardiomyopathy was induced with a single dose of doxorubicin (25 mg/kg) administered intraperitoneally. Blood pressure was measured by tail cuff, activated (phosphorylated) P-ERK by immunoblot, heart mRNA by RT-qPCR, fractional shortening (FS) by echocardiography (ECHO), myocyte necrosis by serum creatine kinase (CK), apoptosis by TUNEL stain, and fibrosis by Sirius red stain.
A61603 at the non-hypertensive dose of 10 ng/kg/day or vehicle was infused over 7 days after a single injection of doxorubicin.

[2] = Dose finding study, daily tail cuff blood pressure in mice; type: in vivo
Method: as §1
In a dose finding study, (0.01-100 μg/kg/day),
A61603 at 10 ng/kg/day over 7 days had no effect on daily tail cuff blood pressure, as evidenced by the average blood pressure of the control, vehicle treated mice of 115±4 mmHg and the average blood pressure of the mice treated with A61603 of 119±4 mmHg.

[3] = test system: alpha-1A adrenergic receptor; assay: Doxorubicin-induced cardiomyopathy in alpha-1A-subtype knock-out mice; type: in vivo
α1A receptors = conditions: cited from earlier work
α1A-AR = α1A-AR knock-out mice, infusion; cited from earlier work

SMILES | EC50 for increase of mean arterial pressure (α1A receptor) | increased mean arterial pressure (MAP) (α1A receptor) | increased mean arterial pressure (MAP) over basal (α1A receptor) | Fibrosis area (%) [1] | TUNEL-positive [1] | ECHO FS (%) [1] | Serum CK (U/L) [1] | Survival 7 days (%) [1] | effect on daily tail cuff blood pressure ([2]; 10 ng/kg/day over 7 days) | average blood pressure ([2]; 10 ng/kg/day over 7 days, osmotic minipump, tail cuff, vehicle control 115±4 mmHg) | effect on blood pressure at higher doses ([2]; doses higher than 10 ng/kg/day (range 0.01-100 μg/kg/day)) | benefit of A61603 against doxorubicin cardiomyopathy ([3]; data not shown) | potency at α1A receptors relative to α1B or α1D sites (α1A receptors) | potency as α1A AR agonist compared with phenylephrine (α1A receptors; versus non-selective α1 AR agonist phenylephrine) | effect on mean arterial pressure (α1A-AR) | apoptosis and mortality compared with wild-type mice ([3]; doxorubicin)
Br.CS(=O)(=O)Nc1c(O)ccc2c1CCCC2C1=NCCN1 (stereo not drawn) [A61603, N-[5-(4,5-Dihydro-1H-imidazol-2-yl)-2-hydroxy-5,6,7,8-tetrahydronaphthalen-1-yl]methanesulfonamide hydrobromide] | 0.3 µg/kg | 35 mm Hg | 25% | 25 ± 1% | 0.5 ± 0.1 | 67 ± 1% | 571 ± 67 U/L | 100% | no effect | 119±4 mmHg | increased blood pressure | no beneficial result | at least 35 fold | more potent | no effect | 
COc1cccc2c1C(=O)c1c(O)c3c(c(O)c1C2=O)C[C@@](O)(C(=O)CO)C[C@@H]3O[C@H]1C[C@H](N)[C@H](O)[C@H](C)O1 [Doxorubicin, doxorubicin, reference compound] |  |  |  | 32 ± 1% | 1.3 ± 0.2 | 55 ± 3% | 1204 ± 98 U/L | 60% |  |  |  |  |  |  |  | increased apoptosis and mortality
